According to publication PMC3913682, “A Monoclonal Antibody TrkB Receptor Agonist as a Potential Therapeutic for Huntington’s Disease” (PLoS ONE, 2014):
Values belong to the molecule of their own block, whether it stands above or below them.

Legend:
[1] = Solubility assay under CellSensor assay conditions (HPLC-UV); assay type: physicochemical; conditions: assay buffer, 0.5% DMSO; for Concentration @ t = 0: 0 hours; for Concentration @ t = 3: 3 hours; for Concentration @ t = 7: 7 hours
Method: To align with the functional data, all compound samples and dilutions were prepared using the CellSensor® assay conditions that include: assay buffer, plates, sample volumes and the same timeframe. The assay incubation time was 7 hours. 0, 3 and 7 hour samples were analysed, in triplicate, in the final assay buffer (DMEM/Glutamax + NEAA + 20 mM Hepes pH7.4 + 0.01% BSA, final DMSO concentration 0.5%) at nominal compound concentrations of 5, 20 and 50 µM. […] The 7 and 3 hour samples were prepared at times which allowed simultaneous filtering and sample analysis.

[2] = tested on: Trk null-NFAT-bla CHO-K1 cells; assay: CellSensor Trk null-NFAT-bla CHO-K1 reporter gene assay; assay type: cell-based; conditions: Cricetulus griseus, Figure 2D, 5 hours
Method: The assays were configured using Invitrogen CHO-K1 cell lines stably expressing a β-lactamase gene under the control of a NFAT promoter region and the relevant Trk (A, B or C) receptor (except for the Trk null cell line). The activity of the β-lactamase enzyme was quantified via FRET with a fluorescent substrate containing a β-lactam ring, according to manufacturer’s provided protocol. All CellSensor® NFAT-bla CHO-K1 cell lines were seeded into black 384w assay plates in CellSensor® plating media (growth media without antibiotics) at 5,000 cells in a volume of 25 µL per well; cells were incubated at 37°C, 5% CO2 overnight. Then, the assay plating media was removed and replaced with 32 µL of assay media (plating media without serum) and returned to the incubator for 1 hour. […] Levels of β-lactamase activity were then quantified by measuring the fluorescent intensity ratio between ^EX400nm/^EM535nm and ^EX400nm/^EM460nm and cytotoxicity quantified by measuring the fluorescence intensity at ^EX590nm/^EM665nm using a Perkin Elmer EnVision.

striatal neurons = assay: Primary neuronal mHTT-induced cell death assay (cortico-striatal co-culture); assay type: cell-based, rat
Description: Cortical and striatal neurons were isolated from E18 rat embryos and separately transfected with a HTT exon1 fragment containing 73 CAG repeats (HTTN90Q73), together with a plasmid encoding for either a green AcGFP or a red AsRed fluorescent reporter before being plated on glial cells and treated with candidate pharmacological agents. After 5 days in culture, the number of fluorescent cells remaining was counted using an automated high content imaging and analysis platform (GE Healthcare InCell 2000) and any changes in neuronal survival quantified.

TrkB [3] = biological target: T1, TrkB (Homo sapiens, UniProt Q16620); assay: CellSensor TrkB-NFAT-bla CHO-K1 reporter gene assay (agonist, antagonist, PAM modes); assay type: cell-based; design: host or cells: CHO-K1
T1 sequence (Q16620 32-822): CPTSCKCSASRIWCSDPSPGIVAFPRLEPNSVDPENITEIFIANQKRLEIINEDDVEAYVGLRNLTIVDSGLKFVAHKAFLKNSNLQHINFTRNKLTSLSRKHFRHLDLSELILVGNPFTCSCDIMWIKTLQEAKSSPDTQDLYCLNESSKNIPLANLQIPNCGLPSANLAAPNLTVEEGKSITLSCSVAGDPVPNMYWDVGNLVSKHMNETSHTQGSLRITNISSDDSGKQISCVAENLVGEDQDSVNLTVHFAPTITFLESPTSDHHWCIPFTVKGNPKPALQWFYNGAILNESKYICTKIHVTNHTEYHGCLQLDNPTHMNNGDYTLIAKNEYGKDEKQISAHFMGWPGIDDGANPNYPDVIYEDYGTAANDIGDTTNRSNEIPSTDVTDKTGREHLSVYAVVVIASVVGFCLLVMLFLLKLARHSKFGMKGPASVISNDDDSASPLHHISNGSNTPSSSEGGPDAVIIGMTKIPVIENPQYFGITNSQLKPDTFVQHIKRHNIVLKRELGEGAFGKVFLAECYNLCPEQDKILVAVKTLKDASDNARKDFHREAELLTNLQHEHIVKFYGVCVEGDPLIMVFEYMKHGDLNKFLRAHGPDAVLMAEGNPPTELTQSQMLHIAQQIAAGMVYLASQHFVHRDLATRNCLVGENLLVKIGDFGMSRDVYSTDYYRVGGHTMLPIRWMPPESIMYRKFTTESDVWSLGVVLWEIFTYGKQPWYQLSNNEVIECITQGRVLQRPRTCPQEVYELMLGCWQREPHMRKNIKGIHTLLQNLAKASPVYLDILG
Method: The assays were configured using Invitrogen CHO-K1 cell lines stably expressing a β-lactamase gene under the control of a NFAT promoter region and the relevant Trk (A, B or C) receptor (except for the Trk null cell line). The activity of the β-lactamase enzyme was quantified via FRET with a fluorescent substrate containing a β-lactam ring, according to manufacturer’s provided protocol. All CellSensor® NFAT-bla CHO-K1 cell lines were seeded into black 384w assay plates in CellSensor® plating media (growth media without antibiotics) at 5,000 cells in a volume of 25 µL per well; cells were incubated at 37°C, 5% CO2 overnight. Then, the assay plating media was removed and replaced with 32 µL of assay media (plating media without serum) and returned to the incubator for 1 hour. […] Test compounds were added (4 µL) and cells were returned to the incubator for 1 hour; dependent on assay mode (agonist, antagonist or positive allosteric modulator) assay media alone (agonist mode), assay media containing EC80 neurotrophin (antagonist mode) or assay media containing EC20 neurotrophin (PAM mode) were then added to the cells (4 µL) for a further 4 hour incubation. ToxBLAzer detection reagent was reconstituted according to the manufacturer’s instructions and 8 µL/well added to the assay plates, these were then incubated at room temperature protected from light for 2 hours. Levels of β-lactamase activity were then quantified by measuring the fluorescent intensity ratio between ^EX400nm/^EM535nm and ^EX400nm/^EM460nm and cytotoxicity quantified by measuring the fluorescence intensity at ^EX590nm/^EM665nm using a Perkin Elmer EnVision.

TrkB [4] = biological target: T1, TrkB; assay: DiscoveRx PathHunter U2OS TrkB enzyme fragment complementation (EFC) assay; assay type: cell-based; conditions: Figure 6C; read-out: BDNF potency (EC50), PathHunter EFC, agonist mode
Description: The assay was configured using DiscoveRx PathHunter® U2OS cell line stably co-expressing two cDNAs: a ProLink™ (PK) tagged TrkB receptor and an Enzyme Acceptor (EA) tagged SH2 domain. Activation of the TrkB-PK receptor induces receptor dimerization and trans-phosphorylation, leading to SH2-EA recruitment, and thereby forcing complementation of the two β-galactosidase enzyme fragments (EA and PK). The resulting functional enzyme hydrolyzes substrate to generate a chemiluminescent signal. U2OS-TrkB PathHunter® cells were seeded into white 384w assay plates in plating media (1x MEM; 0.5% v/v horse serum) at 10,000 cells in a volume of 20 µL per well, cells were incubated at 37°C, 5% CO2 overnight to adhere to assay plates. Test compounds were added (5 µL) to the cells and the plates were returned to the incubator for 1 hour; dependent on assay mode (agonist, antagonist or positive allosteric modulator) assay media alone (agonist mode), assay media containing EC80 BDNF (antagonist mode) or assay media containing EC20 BDNF (PAM mode) were then added to the cells (5 µL) for a further 4 hour incubation at room temperature. PathHunter® detection reagent was then added (15 µL/well) and incubated at room temperature protected from light for 1 hour. Levels of β-galactosidase activity were then quantified by measuring the chemiluminescent signal obtained using a Perkin Elmer EnVision.

[5] = tested on: TrkB, AKT and ERK1/2 phosphorylation; assay: Western blot of TrkB, AKT and ERK1/2 phosphorylation in TrkB-NFAT-bla CHO-K1 cells; assay type: cell-based; conditions: 5 hours treatment; Figure 6E
Description: Clarified cell lysates were resolved by SDS-PAGE, blotted onto nitrocellulose membranes and immunoprobed with the relevant primary and secondary antibody combinations. Anti-pTrkB Tyr^516 (4619), anti-pTrkB Tyr^706/707 (4621), anti-pTrkB, Tyr^816 (4168), anti-pERK1/2 […], anti-pAKT […], anti-TrkB (4603), anti-AKT (4685) and anti-ERK1/2 (4695) were sourced from Cell Signalling Technologies. Anti-GAPDH (IMG-5143A) was obtained from Imgenex; Goat anti-rabbit HRP conjugate (PO448) and Goat anti-mouse HRP conjugate (PO447) were sourced from Dako. Goat anti-mouse 800CW conjugate and Goat anti-rabbit 680 conjugate were sourced from LI-COR. Immunoreactive signals were detected using enhanced chemiluminescence reagent (Amersham) or using the Odyssey infra-red reader.

- Concentration @ t = 0 ([1]; nominal concentration 5 µM): 2.8 µM
- Concentration @ t = 3 ([1]; nominal concentration 5 µM): 3.0 µM
- Concentration @ t = 7 ([1]; nominal concentration 5 µM): 3.7 µM
- Concentration @ t = 0 ([1]; nominal concentration 20 µM): 3.4 µM
- Concentration @ t = 3 ([1]; nominal concentration 20 µM): 2.9 µM
- Concentration @ t = 7 ([1]; nominal concentration 20 µM): 4.5 µM
- Concentration @ t = 0 ([1]; nominal concentration 50 µM): 6.7 µM
- Concentration @ t = 3 ([1]; nominal concentration 50 µM): 4.5 µM
- Concentration @ t = 7 ([1]; nominal concentration 50 µM): 6.9 µM
Molecule: COC(=O)[C@H]1[C@H]2C[C@@H]3c4[nH]c5cc(OC)ccc5c4CCN3C[C@H]2C[C@@H](OC(=O)c2cc(OC)c(OC)c(OC)c2)[C@@H]1OC [Reserpine]

- Effect on induction of NFAT activity by TrkB mAbs (TrkB [3]; co-incubation, pan-Trk inhibitor 100 nM): completely prevented
Molecule: COc1ccc(C(=O)c2cn(C(C)C)c3ncnc(N)c23)cc1NC(=O)Nc1ccc(Cl)cc1Cl [pan-Trk kinase inhibitor, 1-(5-(4-amino-7-isopropyl-7H-pyrrolo[2,3-d]pyrimidine-5-carbonyl)-2-methoxyphenyl)-3-(2,4-dichlorophenyl)urea]
- Effect on antibody effects in striatal neurons (striatal neurons; data not shown): reversed

More lines, now with the values behind:

Molecule: C/C=C(/C)C(=O)O[C@H]1C(C)=C2[C@H]([C@@H]1OC(=O)CCCCCCC)[C@@](C)(OC(C)=O)C[C@H](OC(=O)CCC)[C@@]1(O)[C@H]2OC(=O)[C@@]1(C)O [Thapsigargin]
- EC50 [2]: 1.6 nM

B1: Brain-derived neurotrophic factor (protein, UniProt P23560 19-247, looked up)
Neurotrophic factor BDNF …: APMKEANIRGQGGLAYPGVRTHGTLESVNGPKAGSRGLTSLADTFEHVIEELLDEDQKVRPNEENNKDADLYTSRVMLSSQVPLEPPLLFLLEEYKNYLDAANMSMRVRRHSDPARRGELSVCDSISEWVTAADKKTAVDMSGGTVTVLEKVPVSKGQLKQYFYETKCNPMGYTKEGCRGIDKRHWNSQCRTTQSYVRALTMDSKKRIGWRFIRIDTSCVCTLTIKRGR
notes: Neuroprotective secreted protein, cognate neurotrophin of TrkB
- EC50 (TrkB [4]): 0.823 nM
- EC50 (striatal neurons; Figure 7A, normalized to 1 nM BDNF (100% Rescue) and vehicle (0%), read-out: EC50, % Rescue of striatal neurons from mHTT-induced cell death): 0.214 nM
- TrkB, ERK1/2 and AKT phosphorylation (pathway activation) [5]: induced phosphorylation of TrkB, ERK1/2 and AKT
- EC50 (TrkB [3]; Figure 4A, 5 hours, read-out: EC50, TrkB-NFAT-bla reporter, agonist mode): 0.145 nM
- EC50 (TrkB [3]; Figure 6A, read-out: BDNF potency (EC50), CellSensor NFAT reporter, agonist mode): 0.323 nM
